Laboratory results: patent publication US9777021B2, “Lubricant additives” (Qatar Foundation, priority 2016, dated 2017)

Columns and labels:
[1] = Temperature-ramped pin-on-disk (ball-on-disk) tribometry, friction (COF); conditions: for friction reduction: temperature ramp 180 to 350° C. over 30 min
Experimental: (§1) Silver complex 1 was combined with PAO4 and 15W40 military-grade engine oil (FF oil). The complex was dissolved in the minimal amount of hexane (1 mL per 1 g silver complex) and then added to the oil to achieve complex concentrations of 1.0, 2.5 and 5.0 wt %. Before testing, the oil-silver complex mixtures were stirred with a magnetic stir bar for 30 minutes to ensure a homogeneous dispersion.
Table 1 outlines the experimental conditions used in this study. A ball bearing made of M50 bearing steel with 62 HRC hardness and a diameter of 4 mm is used to apply a vertical load to a 52100 steel disk with 50 HRC hardness and a diameter to 3″ as the disk rotates. The surface of the disk is coated with a 2 mL solution of 1 in the desired base oil. The sliding test conditions for all the experiments were: Normal load=25 N, sliding velocity=200 rpm. In the temperature ramp experiments, the temperature is increased from 180-350° C. over 30 min in order to detect any change in frictional characteristics as the oil degrades, and partially evaporates, and once the metallic Ag is deposited.
Silver complex 1 was added to oil at 0.0, 1.0, 2.5, and 5 wt % loadings. A minimal amount of hexanes was added to aid in solubilizing the complex (1 mL hexanes/g of complex) before mixing with oil. The oils used are PAO4, a base oil with no additives, and a military-grade 15W40 oil, which is fully formulated (FF) but contains no silver-containing additives (confirmed by elemental analysis).

[2] = Wear analysis by white light interferometry of wear scars; conditions: disks of temperature ramp tests
Experimental: After friction tests were completed, the disks were sonicated in a hexane bath to remove oil residue. The volume of the wear scar was measured using a Zygo NewView 7100 white light interferometer. The wear volume and material buildup around the wear scar were used to calculate the wear rate, which is defined as the volume removed per unit load per sliding distance. Each additive concentration in oil was tested twice for friction and wear performance. Energy-dispersive X-ray spectroscopy (EDS) on Hitachi S4800-II and Hitachi SU8030 Scanning Electron Microscopes (SEMs) was used to examine the morphology of the disk surface and deposited silver content.
The disks used in the temperature ramp tests (FIG. 8) were next analyzed by white light interferometry to determine the volume of the wear scars and the material buildup outside of the scar. The volume of material removed was normalized for load and the distance traveled during the test. […] The trend in wear rate is similar to the trend in COF (FIG. 7), with a 2.5 wt % loading producing the lowest amounts of wear. […] It is hypothesized that the increase in efficiency of additive 1 is attributable to the increased number of silver atoms/molecule and improved solubility in oil, which enables better dispersion of the additive in base oil.

Solubility in base oil = assay type: physicochemical
Experimental: as §1
Solubility in base oil is an important property for tribologically promising high temperature additives, and is something that challenged previous generations of silver-organic additives.
Silver complex 1 was added to oil at 0.0, 1.0, 2.5, and 5 wt % loadings. A minimal amount of hexanes was added to aid in solubilizing the complex (1 mL hexanes/g of complex) before mixing with oil.

COF behaviour as the oil begins to degrade above ~275° C. ([1]; 2.5 wt % loading in either base oil (PAO4, 15W40), temperature ramp 180 to 350° C.): the COF does not increase | solubility in PAO4 (Solubility in base oil; 5 wt % loading, gentle heating at 40° C.): homogeneous solution | solubility in oil (PAO4 or 15W40) (Solubility in base oil; cloudy suspension at room temperature, heating to 40° C. and magnetic stirring, 1 mL hexanes/g of complex): dissolves fully
SMILES: CCCCCCc1c(C)n[n-]c1C.[Ag+] [Compound 1, Ag(3,5-dimethyl-4-n-hexyl-pyrazole)]
friction reduction ([1]; 2.5 wt % loading in 15W40): 30% | friction reduction ([1]; 2.5 wt % loading in PAO4): 20% | wear reduction ([2]; 2.5 wt % loading in 15W40): 70% | wear reduction ([2]; 2.5 wt % loading in PAO4): 60%
